Consider 2 molecules from patent publication US7652007B2, “Nitrogen-substituted hexahydropyrazino[1,2-A]pyrimidine-4,7-dione derivatives, processes for their preparation and their use as medicaments” (Sanofi-Aventis Deutschland GmbH, priority 2003, dated 2010).

This assay deals with female NMRI mice. Put plainly: Anorectic effect: cumulative condensed milk consumption of treated compared with control animals. The assay is classed as in vivo. The settings on record: oral dose 50 mg/kg by gavage, female NMRI mice after withdrawal of food for 24 hours; for Reduction in the cumulative milk consumption as % of the control: compared with vehicle-treated control animals; for cumulative milk consumption of the treated animals: condensed milk offered 30 minutes after administration, consumption determined for 7 hours. On the procedure: The anorectic effect was tested on female NMRI mice. After withdrawal of food for 24 hours, the test product was administered by gavage. The animals were housed singly with free access to drinking water and were offered condensed milk 30 minutes after administration of the product. The condensed milk consumption was determined every half hour for 7 hours, and the general wellbeing of the animals was observed. The measured milk consumption was compared with the vehicle-treated control animals.

With `CC(C)N1CC2N(C(=O)C(N(C)C)CN2S(=O)(=O)c2ccc(Cl)cc2Cl)C(Cc2ccc(Cl)cc2)C1=O` (stereo not shown) [Example 5, 6-(4-Chlorobenzyl)-1-(2,4-dichlorobenzenesulfonyl)-3-dimethylamino-8-isopropylhexahydropyrazino[1,2-a]pyrimidine-4,7-dione], the “Reduction in the cumulative milk consumption as % of the control” value is listed as 31 % of the control and the “cumulative milk consumption of the treated animals” value is 5/2.4 ml.
The matching figures for `CC(C)N1CC2N(C(=O)C(NS(C)(=O)=O)CN2S(=O)(=O)c2ccc(Cl)cc2Cl)C(Cc2ccc(Cl)cc2)C1=O` (stereo not shown) [Example 9, N-[6-(4-Chlorobenzyl)-1-(2,4-dichlorobenzenesulfonyl)-8-isopropyl-4,7-dioxooctahydropyrazino[1,2-a]pyrimidin-3-yl]methanesulfonamide]: 47 % of the control and 5/2.06 ml.
